Patent publication US20140193827A1 (TEVA PHARMACEUTICAL INDUSTRIES, LTD., priority 2013, published 2014)

Tested on: GA-primed murine splenocytes
Assay: ANOVA-based pattern identification method
Format: cell-based, mouse
Details: UP IN generic ONLY
Excerpt: We sought to identify probes matching specific patterns of expression across experimental conditions using a technique that referred to as the ANOVA-based Pattern Identification Method.
To carry out the analysis in a general manner, we computed the 6 p-values required to do pairwise comparisons of all 4 conditions for all probes using the ANOVA1 function in MATLAB. We then identified sets of probes matching the desired pattern. In the example above, probes were identified as being only affected by PG if their 6 pairwise comparison pvalues matched the following pattern (pGA-PG<0.05, pPG-reference standard<0.05, pPG-Medium<0.05, pGAMedium>0.05, pGA-reference standard>0.05, preference standard-Medium>0.05).

## glatiramer acetate [GA]
  4930544L04RIK expression: 5.873
  4933437N03RIK expression: 6.099
  5330403O16RIK expression: 5.716
  5730472N09RIK expression: 7.649
  5830457O10RIK expression: 9.145
  5930400G23RIK expression: 5.875
  6330579M01RIK expression: 5.814
  6430709H04RIK expression: 5.642
  6720407G21RIK expression: 5.543
  8030455F02RIK expression: 5.766
  9030624J02RIK expression: 9.517
  9130011J15RIK expression: 8.444
  9330104G04RIK expression: 5.71
  9330158H04RIK expression: 5.699
  9330183F02RIK expression: 5.986
  9430003J03RIK expression: 6.25
  9430078K10RIK expression: 6.125
  9430088N01RIK expression: 6.673
  11110020P15RIK expression: 12.88
  A4GALT expression: 5.801
  A230005A19RIK expression: 5.83
  A230084A06RIK expression: 5.804
  ADAL expression: 6.367
  ADAR expression: 8.858
  ADPRHL2 expression: 6.783
  AI844366 expression: 5.793
  AKT2 expression: 5.919
  ALOX15 expression: 5.968
  ARFGAP2 expression: 9.429
  ARVCF expression: 5.727
  ATG3 expression: 5.593
  ATP9B expression: 5.92
  ATP13A1 expression: 9.018
  ATPBD3 expression: 6.569
  B930062B16RIK expression: 6.038
  BC017612 expression: 7.394
  BC031853 expression: 6.952
  BC037704 expression: 7.193
  BC040758 expression: 6.077
  BCKDK expression: 9.485
  BCL2L2 expression: 5.792
  BCL2L12 expression: 6.997
  BLCAP expression: 8.164
  BPHL expression: 5.714
  BTRC expression: 7.946
  BZRPL1 expression: 6.203
  C130040D06RIK expression: 5.711
  C230062L16RIK expression: 6.189
  C230092H20RIK expression: 5.902
  C730048C13RIK expression: 5.941
  C920004C08RIK expression: 11.38
  CAPZB expression: 5.854
  CAR6 expression: 5.68
  CBARA1 expression: 7.517
  CCL2 expression: 5.834
  CD44 expression: 5.953
  CD151 expression: 7.186
  CDC42BPB expression: 7.153
  CDCA1 expression: 5.663
  CEBPE expression: 6.204
  CENTD3 expression: 7.76
  CHGA expression: 5.756
  CHRM2 expression: 5.589
  CLCN1 expression: 5.787
  CLCNKB expression: 5.956
  CLEC4A3 expression: 6.547
  CNGA4 expression: 6.005
  CNTLN expression: 5.647
  COBLL1 expression: 7.08
  COL4A1 expression: 6.209
  COQ6 expression: 9.965
  COQ9 expression: 8.284
  COTL1 expression: 12.24
  CTNNA3 expression: 5.701
  CXCL14 expression: 5.622
  CYGB expression: 6.119
  D0HXS9928E expression: 9.848
  D11WSU47E expression: 7.068
  D130017N08RIK expression: 6.061
  D430013G08RIK expression: 5.658
  DACH1 expression: 5.874
  DBF4 expression: 8.57
  DHDH expression: 7.454
  DNAHC17 expression: 5.838
  DNM3 expression: 5.71
  DUS2L expression: 6.953
  E030016N13RIK expression: 6.199
  E330037I15RIK expression: 6.256
  EFCAB6 expression: 5.61
  EG665903 expression: 5.547
  ENAH expression: 5.919
  EPM2A expression: 5.76
  F830116E18RIK expression: 5.893
  FAHD1 expression: 7.177
  FAM123A expression: 5.862
  FBXL15 expression: 7.284
  FBXL21 expression: 5.656
  FGR expression: 6.972
  FOXE1 expression: 5.777
  FOXP4 expression: 6.284
  FRY expression: 5.74
  GABRG1 expression: 5.55
  GM628 expression: 5.746
  GPAA1 expression: 7.442
  GPR106, LGR8, GPCR expression: 5.814
  GSTK1 expression: 8.386
  GYPA expression: 6.898
  HIST2H2AA1 expression: 6.224
  HMGCL expression: 7.958
  HOXC10 expression: 6.132
  HSD3B2 expression: 5.776
  HTATIP2 expression: 8.787
  INTS7 expression: 9.311
  ISCA1 expression: 9.378
  ITFG2 expression: 8.148
  ITGA2B expression: 6.451
  JPH1 expression: 5.671
  KCNC3 expression: 5.962
  KIF17 expression: 5.897
  KLHDC3 expression: 7.853
  KREMEN2 expression: 6.223
  KRTCAP2 expression: 12.5338
  LOC223628 expression: 5.598
  LOC277049 expression: 5.915
  LOC277236 expression: 5.977
  LOC332300 expression: 6.243
  LOC380636 expression: 5.566
  LOC380723 expression: 5.812
  LOC382813 expression: 5.786
  LOC383439 expression: 5.708
  LOC385989 expression: 5.996
  LOC546088 expression: 5.782
  LOC677528 expression: 9.498
  LOC100045460 expression: 5.645
  LOC100046781 expression: 6.089
  LOC100047194 expression: 5.921
  LOC100047603 expression: 6.184
  LOC100048331 expression: 5.894
  LY96 expression: 7.768
  LYSMD4 expression: 6.812
  MAGEA9 expression: 5.817
  MAGEE2 expression: 5.808
  MAK10 expression: 9.516
  MAPKAPK2 expression: 10.02
  MCPT6 expression: 5.782
  MFSD7A expression: 5.961
  MKNK1 expression: 6.113
  MLANA expression: 5.769
  MOCO5 expression: 6.424
  MS4A7 expression: 6.506
  MTAP1S expression: 8.992
  MTRR expression: 6.473
  NAPA expression: 7.994
  NAPRT1 expression: 6.46
  NCDN expression: 8.408
  NEK4 expression: 5.969
  NFE2L1 expression: 9.753
  NFKB1 expression: 11.57
  NRXN1 expression: 5.957
  NSF expression: 9.95
  OLFR228 expression: 5.655
  OLFR312 expression: 5.726
  OLFR506 expression: 5.636
  OLFR519 expression: 5.669
  OLFR907 expression: 5.644
  OLFR1155 expression: 5.789
  PALLD expression: 5.641
  PALM expression: 6.421
  PCBD2 expression: 10.32
  PCDHAC1 expression: 5.69
  PCOLN3 expression: 7.171
  PDGFB expression: 6.243
  PEF1 expression: 9.307
  PKIA expression: 6.356
  PKIB expression: 5.803
  PLD1 expression: 5.927
  PRDX2 expression: 11.61
  PRPF3 expression: 10.04
  PSCD2 expression: 6.134
  PSG22 expression: 5.693
  PTPRF expression: 5.709
  R74862 expression: 6.215
  RALGPS2 expression: 8.862
  RASAL2 expression: 6.006
  RBPMS expression: 6.068
  REXO1 expression: 6.854
  RHOF expression: 9.948
  RHOT1 expression: 9.777
  RNF40 expression: 6.148
  RNF183 expression: 5.994
  RPUSD3 expression: 6.756
  RSC1A1 expression: 7.697
  SAMD10 expression: 6.984
  SARDH expression: 5.837
  SCAVENGER RECEPTOR expression: 6.161
  SCN1B expression: 5.97
  SFRS2IP expression: 9.233
  SGSM3 expression: 7.217
  SLC7A8 expression: 6.268
  SLC13A5 expression: 5.704
  SLC22A21 expression: 5.775
  SLC26A6 expression: 6.454
  SMG7 expression: 9.655
  SNCA expression: 5.875
  SOX7 expression: 6.163
  SPEN expression: 6.891
  SPIN2 expression: 6.355
  SYMPK expression: 8.402
  SYN1 expression: 5.985
  TAF3 expression: 7.199
  TCEAL5 expression: 5.768
  TCF7L2 expression: 5.717
  TFIP11 expression: 8.095
  TFRC expression: 9.789
  TG737RPW expression: 6.301
  THOC1 expression: 8.813
  TJAP1 expression: 8.168
  TMEM43 expression: 9.133
  TNXB expression: 5.703
  TRABD expression: 8.509
  TRIM2 expression: 5.778
  TRIM15 expression: 5.62
  TRPV4 expression: 5.895
  TRUB1 expression: 8.23
  TSNAXIP1 expression: 5.811
  TTC4 expression: 8.309
  TTC15 expression: 7.191
  UACA expression: 6.1
  UAP1 expression: 8.168
  UBE2A expression: 7.652
  UBE2E2 expression: 6.42
  UGP2 expression: 7.767
  USP10 expression: 6.432
  USP36 expression: 8.5
  V1RC23 expression: 5.692
  VGLL2 expression: 5.853
  WIZ expression: 7.206
  WNK2 expression: 5.719
  XPO5 expression: 7.592
  ZBTB6 expression: 6.029
  ZEB2 expression: 5.602
  ZFP162 expression: 7.652
  ZFP239 expression: 7.228
  ZFP563 expression: 5.809
  ZFP748 expression: 5.815
  ZMAT3 expression: 7.615
  ZMIZ1 expression: 7.099
  control_ILMN_1378661 expression: 5.718
  control_ILMN_1378677 expression: 5.994
  control_ILMN_1378911 expression: 5.7
First AMBRA1 line (r790)
  AMBRA1 expression: 5.749
First CAMK1 line (r746)
  CAMK1 expression: 6.416
Second AMBRA1 line (r797)
  AMBRA1 expression: 8.755
Second CAMK1 line (r762)
  CAMK1 expression: 5.514
